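48-hour exposure; five concentrations; linearly interpolated endpoints. The concentration for 50% growth inhibition is given as GI50.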 Active and inactive are the calls of the source. Cut-off read from the data, not from the text of the source: active = GI50 up to about 1.1 µM and inactive = higher.
Legend:
Experiment in all cases: NCI anticancer screen, dose series, 48 h
PC-3 = tested on: PC-3
SNB-19 = tested on: SNB-19
UACC-257 = tested on: UACC-257
IGROV-1 = tested on: IGROV-1
U-251 = tested on: U-251
T47D = tested on: T47D
K562 = tested on: K562
SF-295 = tested on: SF-295
SK-MEL-5 = tested on: SK-MEL-5
UO-31 = tested on: UO-31
OVCAR-4 = tested on: OVCAR-4
SF-539 = tested on: SF-539
MDA-N = tested on: MDA-N
A498 = tested on: A498
Malme-3M = tested on: Malme-3M
ACHN = tested on: ACHN
DU-145 = tested on: DU-145
SK-OV-3 = tested on: SK-OV-3
HL-60 = tested on: HL-60
KM12 = tested on: KM12
HT-29 = tested on: HT-29
CAKI-1 = tested on: CAKI-1
SN12C = tested on: SN12C
NCI/ADR-RES = tested on: NCI/ADR-RES
UACC-62 = tested on: UACC-62
COLO 205 = tested on: COLO 205
HCT-15 = tested on: HCT-15
MOLT-4 = tested on: MOLT-4
OVCAR-3 = tested on: OVCAR-3
NCI-H460 = tested on: NCI-H460
MCF7 = tested on: MCF7
MDA-MB-435 = tested on: MDA-MB-435
SK-MEL-28 = tested on: SK-MEL-28
Hs-578T = tested on: Hs-578T
OVCAR-8 = tested on: OVCAR-8
BT-549 = tested on: BT-549
MDA-MB-231 = tested on: MDA-MB-231
NCI-H522 = tested on: NCI-H522
SK-MEL-2 = tested on: SK-MEL-2
NCI-H23 = tested on: NCI-H23
M14 = tested on: M14
786-0 = tested on: 786-0
A549 = tested on: A549
SW-620 = tested on: SW-620
HOP-92 = tested on: HOP-92
SNB-75 = tested on: SNB-75
RPMI-8226 = tested on: RPMI-8226
CCRF-CEM = tested on: CCRF-CEM
RXF 393 = tested on: RXF 393
LOX IMVI = tested on: LOX IMVI
EKVX = tested on: EKVX
HOP-62 = tested on: HOP-62
SF-268 = tested on: SF-268
TK-10 = tested on: TK-10
HCT-116 = tested on: HCT-116

For `COc1ccc2c(c1)C(N)=C(Cc1ccncc1)C2=O`, the GI50 (PC-3) was 91.8 µM (inactive), the GI50 (SNB-19) was > 100 µM (inactive) and the GI50 (UACC-257) was > 100 µM (inactive). The GI50 (IGROV-1) was 56.9 µM (inactive), the GI50 (U-251) was > 100 µM (inactive) and the GI50 (T47D) was 55.2 µM (inactive). For the same molecule, the GI50 (K562) was > 100 µM (inactive), the GI50 (SF-295) was > 100 µM (inactive) and the GI50 (SK-MEL-5) was > 100 µM (inactive). The GI50 (UO-31) was 46 µM (inactive), the GI50 (OVCAR-4) was 98.4 µM (inactive) and the GI50 (SF-539) was > 100 µM (inactive). The GI50 (MDA-N) was > 100 µM (inactive), the GI50 (A498) was > 100 µM (inactive) and the GI50 (Malme-3M) was > 100 µM (inactive). The GI50 (ACHN) was > 100 µM (inactive), the GI50 (DU-145) was > 100 µM (inactive) and the GI50 (SK-OV-3) was > 100 µM (inactive). For the same molecule, the GI50 (HL-60) was 49.4 µM (inactive), the GI50 (KM12) was > 100 µM (inactive) and the GI50 (HT-29) was > 100 µM (inactive). The GI50 (CAKI-1) was > 100 µM (inactive), the GI50 (SN12C) was 63 µM (inactive) and the GI50 (NCI/ADR-RES) was > 100 µM (inactive). For the same molecule, the GI50 (UACC-62) was 81.3 µM (inactive), the GI50 (COLO 205) was > 100 µM (inactive) and the GI50 (HCT-15) was greater than 100 µM. The GI50 (MOLT-4) was 63.1 µM (inactive), the GI50 (OVCAR-3) was > 100 µM (inactive) and the GI50 (NCI-H460) was > 100 µM (inactive). The GI50 (MCF7) was 82.4 µM (inactive), the GI50 (MDA-MB-435) was > 100 µM (inactive) and the GI50 (SK-MEL-28) was > 100 µM (inactive). For the same molecule, the GI50 (Hs-578T) was > 100 µM (inactive), the GI50 (OVCAR-8) was > 100 µM (inactive) and the GI50 (BT-549) was > 100 µM (inactive). The GI50 (MDA-MB-231) was > 100 µM (inactive), the GI50 (NCI-H522) was 89.7 µM (inactive) and the GI50 (SK-MEL-2) was > 100 µM (inactive). For the same molecule, the GI50 (NCI-H23) was > 100 µM (inactive), the GI50 (M14) was > 100 µM (inactive) and the GI50 (786-0) was > 100 µM (inactive). The GI50 (A549) was > 100 µM (inactive), the GI50 (SW-620) was > 100 µM (inactive) and the GI50 (HOP-92) was 31.4 µM (inactive). The GI50 (SNB-75) was 28.4 µM (inactive), the GI50 (RPMI-8226) was > 100 µM (inactive) and the GI50 (CCRF-CEM) was 75.2 µM (inactive). For the same molecule, the GI50 (RXF 393) was > 100 µM (inactive), the GI50 (LOX IMVI) was > 100 µM (inactive) and the GI50 (EKVX) was 53.5 µM (inactive). For the same molecule, the GI50 (HOP-62) was > 100 µM (inactive), the GI50 (SF-268) was > 100 µM (inactive) and the GI50 (TK-10) was > 100 µM (inactive). The GI50 (HCT-116) was > 100 µM (inactive).
